Counter-ions that a name gives are not always drawn.
Columns and labels:
[1] = Water content by Karl Fisher titration; type: physicochemical; details: Example 11 sample
Description: The water of hydration content is measured by the Karl Fischer method which is well known in the art and is described in the 1990 US Pharmacopoeia at pages 1619-1621, and the European Pharmacopoeia, second edition (1992) part 2, sixteenth fascicule at v. 3.5-6.1. Water content (by Karl Fisher titration): 0.61% w/w

[2] = Thermogravimetric analysis (TGA); type: physicochemical; details: from 182-310° C.; scan rate 10° C. per minute
Description: Thermogravimetric analysis was carried out on a Perkin-Elmer Pyris-1 TGA system. Scan rate of 10° C. per minute. Sample size 3.757 mg. The TGA trace is provided at FIG. 6.

[3] = Stability and hygroscopicity of the crystal form (stated, no method); type: physicochemical; details: statement in words
[4] = relative to acyclovir; statement in words; cited from earlier work

Row | Structure (SMILES) | Water content (by Karl Fisher titration) [1] | Weight loss associated with melting/decomposition [2] | Hygroscopicity [3] | Stability of the crystal form [3] | Bioavailability [4]
1 | CC(C)[C@H](N)C(=O)OCCOCn1cnc2c(=O)[nH]c(N)nc21 [Form 2 Valaciclovir Hydrochloride, valaciclovir hydrochloride] | 0.61 % w/w | 42.97 % w/w | essentially non-hygroscopic | stable | –
2 | CC(C)[C@H](N)C(=O)OCCOCn1cnc2c(=O)[nH]c(N)nc21 [valaciclovir] | – | – | – | – | much improved bioavailability
